According to patent publication US9133206B2, “Benzodiazepine and pyridodiazepine derivatives” (AbbVie Inc., priority 2010, dated 2015):

Tested on: SK-N-SH human neuroblastoma cells
Experiment: Serum Deprivation/JC-1 Mitochondrial Membrane Potential (MMP) Assay
Format: cell-based
Details: for EC50: serum deprivation ~18 hours, JC-1 ratio normalized to peak value for 10 μM dimebolin, single curve fit to mean data of n=2-3; for Emax / JC-1 max %: percent maximal intensity in JC-1 ratio normalized to peak value for 10 μM dimebolin, serum deprivation; for Emax: read-out: JC-1 max %
Description: The method also involves a high-throughput assay using serum-deprivation conditions involving neuronal cells to screen for compounds that increase or preserve mitochondrial membrane potential. Such compounds can be found to aid in rescuing cells from energy-depletion that occurs in several neurodegenerative states. Mitochondrial-mediated apoptosis occurs in response to a wide range of apoptotic stimuli including p^53, c-myc, DNA damage, prooxidants, chemotherapeutic agents, serum starvation and death receptor activation (Lin C—H., Lu Y-Z., Cheng, F-C., Chu L-F. and Hsuch C-M. Bax-regulated mitochondrial-mediated apoptosis is responsible for the in vitro ischemia induced neuronal cell death of Sprague Dawley rat. Neuroscience Lett. 2005, 387, 22-27).
Thus, this stress inducer, serum deprivation, combined with monitoring changes in the mitochondrial membrane potential in a 96-well format allows for the establishment of an efficient high-throughput screen (HTS) in order to evaluate the ability of compounds to increase mitochondrial membrane potential in the presence of stress and preserve health of the cell. Exemplary procedures for conducting such high-throughput assay are provided below.
SK-N-SH human neuroblastoma cells obtained from American Type Culture Collection (Rockville, Md.) were maintained in the log phase of growth in Minimal Essential Media (MEM), 10% heat inactivated fetal calf serum and 100 units/mL antibiotic-antimycotic (AA). Cells were cultured and maintained in a humidified incubator at 37° C. under 5% CO2 and 95% air. Cells were trypsinized (0.25%) and subcultured every 3 days and used from 15-18 passages. All cell culture supplies were obtained from Invitrogen (Carlsbad, Calif.).
SK-N-SH cells were plated 2-3 days in advance at a concentration of 50,000 cells/well onto collagen coated black-walled 96 well plates (Becton-Dickinson, Bedford, Mass.) in a total volume of […]. On day of experimental treatment, the media containing serum was aspirated from each well and rinsed once with MEM/1% AA without serum. The cells then were incubated overnight in 100 μL of MEM/1% AA (no serum) with and without dimebolin or novel chemical entities overnight for ˜18 hours. The following day, JC-1 dye (5,5′,6,6′-tetrachloro-1,1′,3,3′-tetraethylbenzimidazolcarbocyanide) was diluted 1:10 into MEM media according to the JC-1 Mitochondrial Membrane Potential Assay Kit: (Cayman Chemical Company, Ann Arbor, Mich.) and then 10 μL of the JC-1 dye solution was added to each well. The plates were centrifuged for 5 minutes at 400×g at room temperature followed by 40 minute incubation at 37° C. The plates were washed twice with 200 μL of provided Assay Buffer followed an addition of 100 μL of Assay Buffer to each well. The plates were read with an excitation and emission of 560 nm and 595 nM for red fluorescence and with an excitation and emission of 485 nm and 535 nM for green fluorescence to determine the final JC-1 value taking the red to green fluorescence ratio. This assay is based on change in mitochondrial membrane potential (MMP) using this lipophilic cationic dye, JC-1, by monitoring the changes in the ratio of red to green fluorescence as the MMP depolarizes. This change in MMP reflects the health of the cell with healthy, viable cells have a high JC-1 ratio and high MMP whereas apoptotic, unhealthy cells have a low JC-1 ratio or low MMP.
For the ability of compounds to reverse the stress due to serum deprivation and increase the JC-1 ratio, the percent maximal intensity in JC-1 ratio was normalized to that induced by the peak value for 10 μM dimebolin and plotted against the compound concentration to calculate EC50 values and to control for plate-to-plate variability. Concentration-response data were analyzed using GraphPad Prism (San Diego, Calif.); the EC50 values were derived from a single curve fit to the mean data of n=2-3, in duplicates. […]

| Structure (SMILES) | EC50 (Homo sapiens, SK-N-SH, 18 h) [µM] | Emax (Homo sapiens, SK-N-SH) [%] | JC-1 max % [%] | EC50 [µM] |
| --- | --- | --- | --- | --- |
| O=C([C@@H]1C[C@H]1c1ccccc1)N1Cc2ccccc2N2CCN(Cc3ccccc3)CC2C1 (relative stereo) [Example 15, (3-benzyl-1,2,3,4,4a,5-hexahydropyrazino[1,2-a][1,4]benzodiazepin-6(7H)-yl)[trans-2-phenylcyclopropyl]methanone] | 2.19 | 225 | – | – |
| Fc1ccc(CN2CCN3c4ccccc4CN(Cc4ccc(Br)cc4)C[C@H]3C2)cc1 (single isomer, unassigned) [Example 61] | 2.57 | 213 | – | – |
| Fc1ccc(CN2CCN3c4ccccc4CN(Cc4ccc(Br)cc4)C[C@@H]3C2)cc1 (single isomer, unassigned) [Example 62] | 3.65 | 161 | – | – |
| Brc1ccc(CN2Cc3ccccc3N3CCN(Cc4ccccc4)CC3C2)cc1 (single isomer, unassigned; (+)) [Example 19, (+)-3-benzyl-6-(4-bromobenzyl)-1,2,3,4,4a,5,6,7-octahydropyrazino[1,2-a][1,4]benzodiazepine] | – | – | 169 | 1.56 |
| Brc1ccc(CN2Cc3ccccc3N3CCN(Cc4ccccc4)CC3C2)cc1 (single isomer, unassigned; (-)) [Example 18, (−)-3-benzyl-6-(4-bromobenzyl)-1,2,3,4,4a,5,6,7-octahydropyrazino[1,2-a][1,4]benzodiazepine] | – | – | 178 | 2.72 |
| CC(C)(C)OC(=O)N1CCN2c3ccccc3CNC(=O)C2C1 (stereo not drawn) [Example 1, tert-butyl 5-oxo-1,2,4a,5,6,7-hexahydropyrazino[1,2-a][1,4]benzodiazepine-3(4H)-carboxylate] | 9.59 | 88 | – | – |
| c1ccc(CN2CCN3c4ccccc4CNCC3C2)cc1 (stereo not drawn) [Example 2, 3-benzyl-1,2,3,4,4a,5,6,7-octahydropyrazino[1,2-a][1,4]benzodiazepine] | 3.44 | 186 | – | – |
| Brc1ccc(CN2Cc3ccccc3N3CCN(Cc4ccccc4)CC3C2)cc1 (stereo not drawn) [Example 3, 3-benzyl-6-(4-bromobenzyl)-1,2,3,4,4a,5,6,7-octahydropyrazino[1,2-a][1,4]benzodiazepine] | – | – | 226 | 2.88 |
| O=C(Cc1ccccc1)N1Cc2ccccc2N2CCN(Cc3ccccc3)CC2C1 (stereo not drawn) [Example 4, 1-(3-benzyl-1,2,3,4,4a,5-hexahydropyrazino[1,2-a][1,4]benzodiazepin-6(7H)-yl)-2-phenylethanone] | 2.42 | 263 | – | – |
| O=C(c1ccccc1)N1Cc2ccccc2N2CCN(Cc3ccccc3)CC2C1 (stereo not drawn) [Example 5, (3-benzyl-1,2,3,4,4a,5-hexahydropyrazino[1,2-a][1,4]benzodiazepin-6(7H)-yl)(phenyl)methanone] | 6.7 | 57 | – | – |
| c1ccc(CN2CCN3c4ccccc4C[N+](Cc4ccccc4)(Cc4ccccc4)CC3C2)cc1 (stereo not drawn) [Example 6, 3,6,6-tribenzyl-1,2,3,4,4a,5,6,7-octahydropyrazino[1,2-a][1,4]benzodiazepin-6-ium] | – | – | 148 | 6.44 |
| c1ccc(CN2CCN3c4ccccc4CN(Cc4ccccc4)CC3C2)cc1 (stereo not drawn) [Example 7, 3,6-dibenzyl-1,2,3,4,4a,5,6,7-octahydropyrazino[1,2-a][1,4]benzodiazepine] | > 30 | 24 | – | – |
| CN1Cc2ccccc2N2CCN(Cc3ccccc3)CC2C1 (stereo not drawn) [Example 8, 3-benzyl-6-methyl-1,2,3,4,4a,5,6,7-octahydropyrazino[1,2-a][1,4]benzodiazepine] | 3.03 | 204 | – | – |
| c1ccc(CN2CCN3c4ccccc4CN(c4ncccn4)CC3C2)cc1 (stereo not drawn) [Example 9, 3-benzyl-6-(pyrimidin-2-yl)-1,2,3,4,4a,5,6,7-octahydropyrazino[1,2-a][1,4]benzodiazepine] | 2.59 | 158 | – | – |
| O=C(c1ccc(F)cc1)N1Cc2ccccc2N2CCN(Cc3ccccc3)CC2C1 (stereo not drawn) [Example 10, (3-benzyl-1,2,3,4,4a,5-hexahydropyrazino[1,2-a][1,4]benzodiazepin-6(7H)-yl)(4-fluorophenyl)methanone] | 2.74 | 248 | – | – |
| c1ccc(CN2CCN3c4ccccc4CN(c4cnccn4)CC3C2)cc1 (stereo not drawn) [Example 11, 3-benzyl-6-(pyrazin-2-yl)-1,2,3,4,4a,5,6,7-octahydropyrazino[1,2-a][1,4]benzodiazepine] | 5.61 | 122 | – | – |
| O=C(c1cnccn1)N1Cc2ccccc2N2CCN(Cc3ccccc3)CC2C1 (stereo not drawn) [Example 12, (3-benzyl-1,2,3,4,4a,5-hexahydropyrazino[1,2-a][1,4]benzodiazepin-6(7H)-yl)(pyrazin-2-yl)methanone] | 1.11 | 198 | – | – |
| O=C(N1Cc2ccccc2N2CCN(Cc3ccccc3)CC2C1)C1(c2ccccc2)CC1 (stereo not drawn) [Example 13, (3-benzyl-1,2,3,4,4a,5-hexahydropyrazino[1,2-a][1,4]benzodiazepin-6(7H)-yl)(1-phenylcyclopropyl)methanone] | 4.18 | 175 | – | – |
| O=C(N1CCOCC1)N1Cc2ccccc2N2CCN(Cc3ccccc3)CC2C1 (stereo not drawn) [Example 14, (3-benzyl-1,2,3,4,4a,5-hexahydropyrazino[1,2-a][1,4]benzodiazepin-6(7H)-yl)(morpholin-4-yl)methanone] | 0.754 | 203 | – | – |
| c1ccc(CN2CCN3c4ccccc4CN(c4ccccn4)CC3C2)cc1 (stereo not drawn) [Example 16, 3-benzyl-6-(pyridin-2-yl)-1,2,3,4,4a,5,6,7-octahydropyrazino[1,2-a][1,4]benzodiazepine] | 3.63 | 131 | – | – |
| Fc1ccc(CN2Cc3ccccc3N3CCN(Cc4ccccc4)CC3C2)cc1 (stereo not drawn) [Example 17, 3-benzyl-6-(4-fluorobenzyl)-1,2,3,4,4a,5,6,7-octahydropyrazino[1,2-a][1,4]benzodiazepine] | 4.48 | 183 | – | – |
| O=C(/C=C/c1ccccc1)N1Cc2ccccc2N2CCN(Cc3ccccc3)CC2C1 (stereo not drawn) [Example 20, (2E)-1-(3-benzyl-1,2,3,4,4a,5-hexahydropyrazino[1,2-a][1,4]benzodiazepin-6(7H)-yl)-3-phenylprop-2-en-1-one] | 5.47 | 133 | – | – |
| FC(F)(F)c1ccc(CN2Cc3ccccc3N3CCN(Cc4ccccc4)CC3C2)cc1 (stereo not drawn) [Example 21, 3-benzyl-6-[4-(trifluoromethyl)benzyl]-1,2,3,4,4a,5,6,7-octahydropyrazino[1,2-a][1,4]benzodiazepine] | 6.11 | 168 | – | – |
| CN1CCN2c3ccccc3N(Cc3ccc(Br)cc3)CCC2C1 (stereo not drawn) [Example 22, 7-(4-bromobenzyl)-3-methyl-1,2,3,4,4a,5,6,7-octahydropyrazino[1,2-a][1,5]benzodiazepine] | 2.95 | 173 | – | – |
| Fc1cc(CN2Cc3ccccc3N3CCN(Cc4ccccc4)CC3C2)ccc1Br (stereo not drawn) [Example 23, 3-benzyl-6-(4-bromo-3-fluorobenzyl)-1,2,3,4,4a,5,6,7-octahydropyrazino[1,2-a][1,4]benzodiazepine] | 5.72 | 238 | – | – |
| Fc1cc(F)cc(CN2Cc3ccccc3N3CCN(Cc4ccccc4)CC3C2)c1 (stereo not drawn) [Example 24, 3-benzyl-6-(3,5-difluorobenzyl)-1,2,3,4,4a,5,6,7-octahydropyrazino[1,2-a][1,4]benzodiazepine] | 4.77 | 166 | – | – |
| Fc1ccc(CN2Cc3ccccc3N3CCN(Cc4ccccc4)CC3C2)cc1F (stereo not drawn) [Example 25, 3-benzyl-6-(3,4-difluorobenzyl)-1,2,3,4,4a,5,6,7-octahydropyrazino[1,2-a][1,4]benzodiazepine] | 15.7 | 128 | – | – |
